Measured values as given in PubChem BioAssay (NCI).
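Method: 48-hour compound exposure of cells in 96-well plates, five concentrations, linear interpolation of endpoints. GI50: concentration for 50% inhibition of growth. Definition used: TGI = concentration required for complete inhibition of growth.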

Legend:
Assay in all cases: NCI tumour cell line growth inhibition, 48 h
SK-MEL-28 melanoma = tested on: SK-MEL-28 melanoma
SF-268 CNS = tested on: SF-268 CNS
UACC-257 melanoma = tested on: UACC-257 melanoma
T-47D breast = tested on: T-47D breast
NCI-H522 lung = tested on: NCI-H522 lung
HT29 colon = tested on: HT29 colon
BT-549 breast = tested on: BT-549 breast
HCC-2998 colon = tested on: HCC-2998 colon
SW-620 colon = tested on: SW-620 colon
OVCAR-3 ovarian = tested on: OVCAR-3 ovarian

| SMILES | GI50 (SK-MEL-28 melanoma) [µM] | TGI (SK-MEL-28 melanoma) [µM] | GI50 (SF-268 CNS) [µM] | TGI (SF-268 CNS) [µM] | GI50 (UACC-257 melanoma) [µM] | TGI (UACC-257 melanoma) [µM] | GI50 (T-47D breast) [µM] | TGI (T-47D breast) [µM] | GI50 (NCI-H522 lung) [µM] | TGI (NCI-H522 lung) [µM] | GI50 (HT29 colon) [µM] | TGI (HT29 colon) [µM] | GI50 (BT-549 breast) [µM] | TGI (BT-549 breast) [µM] | GI50 (HCC-2998 colon) [µM] | TGI (HCC-2998 colon) [µM] | GI50 (SW-620 colon) [µM] | TGI (SW-620 colon) [µM] | GI50 (OVCAR-3 ovarian) [µM] | TGI (OVCAR-3 ovarian) [µM] |
| --- | --- | --- | --- | --- | --- | --- | --- | --- | --- | --- | --- | --- | --- | --- | --- | --- | --- | --- | --- | --- |
| CC[Si](CC)(CC)OC1[C@@H](O[Si](CC)(CC)CC)[C@@H](CNC(=O)NC)O[C@H]1n1cnc2c(NC(=O)Nc3ccccc3)ncnc21 (stereo not given in full) | 4.93 | > 100 | 4.67 | > 100 | 2.81 | 55.8 | 4.47 | > 100 | 3.83 | 78.5 | 2.4 | 6.13 | 3 | 12.2 | 3.22 | 16.2 | 4.1 | > 100 | 2.63 | 7.7 |
| CC1(C)CC[C@]2(CO)CC[C@]3(C)C(=CC[C@@H]4[C@@]5(C)CCNCC(C)(C)[C@@H]5CC[C@]43C)[C@@H]2C1 | 2.13 | 5.39 | 8.98 | 25.4 | 2.33 | 5.79 | 2.42 | 11.2 | 2.62 | 7.09 | 2.69 | 9.4 | 4.79 | 18.3 | 1.89 | 4.07 | 1.97 | 4.41 | 6.68 | 27.7 |
| C=CCN1C(=O)[C@]2(SC1=S)[C@H](c1cccc(Cl)c1)CN(C)[C@]21C(=O)NC2C=CC(Cl)=C[C@H]21 (stereo not given in full) | 10.9 | 27.8 | 6.77 | 24.6 | 12.2 | 35.8 | 2.84 | 14.7 | 5.79 | 20.6 | 1.67 | 3.85 | 2.06 | 8.49 | 5.05 | 19.1 | 2.89 | 11.6 | 3.43 | 14.2 |
| CCC(C)C(=O)OC1CCC=C2C=CC(C)C(CCC3CC(O)CC(=O)O3)C21 (stereo not given) | – | > 100 | – | > 100 | – | > 100 | – | > 100 | – | 21 | – | > 100 | – | 73 | – | > 100 | – | > 100 | – | > 100 |
| O=C(CCl)Nc1ccc(Cc2ccc(NC(=O)CCl)cc2)cc1 | 2.15 | 6.06 | 1.83 | 9.56 | 2.78 | 9.46 | 1.65 | 4.67 | 1.47 | 3.5 | 1.73 | 4.47 | 1.4 | 4.69 | 1.8 | 3.47 | 1.92 | 5.25 | 1.17 | 2.48 |
| CC(=O)/C=C/c1ccc(N(CCO)Cc2ccc(C(C)(C)C)cc2)cc1 | 58.8 | 201 | 59 | 200 | 78.1 | 217 | 31 | 161 | 84.8 | 237 | 27.7 | 103 | 47.8 | 178 | 152 | 321 | 119 | 259 | 60.3 | 187 |
| COc1ccc2nc3ccccc3c(NCc3ccccc3)c2c1 | 1.75 | 3.57 | 2.94 | 9.71 | 2.16 | 4.88 | 2.69 | 8.89 | 1.77 | 4.6 | 1.8 | 6.23 | 2.16 | 5.18 | 1.86 | 3.77 | 1.72 | 4.68 | 2.65 | 6.89 |
| C1=C\CCCCN2CC[C@H]3[C@H](CCCC/C=C\CCCN4C[C@@H](CCCCC/1)C[C@@H]3C4)C2 | 1.82 | 3.35 | 13.6 | 26.8 | 1.74 | 3.5 | 10 | 27.4 | 12.6 | 28.5 | 3.28 | 12.9 | 13.4 | 27.3 | 2.58 | 7.6 | 6.96 | 19.4 | 10.8 | 23.3 |
| C/C(=N\NC(=S)N1CCN(c2ccccn2)CC1)c1cccc2cccnc12 | – | > 100 | – | > 100 | – | > 100 | – | > 87.6 | – | 9.63 | – | 21.2 | – | > 100 | – | > 58.9 | – | > 100 | – | > 29 |
| O=C(Nc1cc2cc([N+](=O)[O-])ccc2oc1=O)c1cccs1 | – | > 100 | – | > 100 | – | > 100 | – | > 100 | – | 84.7 | – | > 100 | – | > 100 | – | > 100 | – | > 100 | – | > 100 |
| Nc1ncnc2c1ncn2CCCCC(=O)O | – | > 100 | – | > 100 | – | > 100 | – | > 100 | – | > 100 | – | > 100 | – | > 100 | – | > 100 | – | > 100 | – | > 100 |
| c1ccc(/C(=N\Nc2nc3ccccc3s2)c2ccccn2)cc1 | – | > 100 | – | > 50.4 | – | > 25.9 | – | 52.5 | – | 36.7 | – | 47.1 | – | > 100 | – | 46 | – | > 100 | – | 1.72 |
| CCSCCCC(=O)O | – | > 100 | – | > 100 | – | > 100 | – | > 100 | – | > 100 | – | > 100 | – | > 100 | – | > 100 | – | > 100 | – | > 100 |
| C/C=C(\C)C(=O)O[C@@H]1C=CC(=O)O[C@H]1CNC(=O)[C@H](C)O | 16.1 | 35.8 | 17 | 51.3 | 26.9 | > 84.4 | 21.9 | > 66.8 | 13.1 | 30.5 | 17.7 | 40.6 | 12.5 | 28 | 20.4 | 40.9 | 10 | 25.4 | 17.4 | 37.8 |
| C=C1C(O)C2CC(C)(C)C(=O)C2=C(CC(C)C)C12CC2 (stereo not given) | > 100 | > 100 | > 100 | > 100 | > 100 | > 100 | > 100 | > 100 | 85 | > 100 | > 100 | > 100 | > 100 | > 100 | > 100 | > 100 | > 100 | > 100 | > 100 | > 100 |
| CCC(=C(c1ccc(OCCN2CCCC2)cc1)c1ccc(OCCN2CCCC2)cc1)c1ccc(Cl)cc1 | 0.571 | 1.06 | 0.612 | 1.25 | 0.595 | 1.18 | 0.498 | 1.21 | 0.577 | 1.24 | 0.511 | 1.15 | 0.733 | 1.86 | 0.566 | 1.07 | 0.554 | 1.09 | 0.624 | 1.29 |
| O=C(O)c1[nH]c2c([N+](=O)[O-])cc([N+](=O)[O-])cc2c1C(=O)O | – | > 100 | – | > 100 | – | > 100 | – | > 100 | – | > 100 | – | > 100 | – | > 100 | – | > 100 | – | > 100 | – | > 100 |
| Cc1cn2c(/C=C3\C(=O)N(C)c4ccc(Cl)cc43)c(C)nc2s1 | 6.6 | > 100 | 3.02 | > 100 | 3.37 | 38.6 | > 100 | > 100 | 2.76 | 7.76 | 1.9 | 12 | 6.4 | > 100 | 2.61 | 6.18 | 4.27 | > 100 | 2.55 | 6.93 |
| O=C1c2ccccc2C(=O)c2sc(Nc3ccc([N+](=O)[O-])cc3)nc21 | – | 25.7 | – | 12.2 | – | 11.7 | – | 6.81 | – | 6.35 | – | 57.7 | – | 27.4 | – | 30.1 | – | 8.48 | – | 6.82 |
| COc1ccc(-c2nnc(Nc3nc(O)c(C4=c5cc(Br)ccc5=NC4=O)s3)o2)cc1 | 29 | > 100 | 47.5 | > 100 | 7.79 | 56.9 | 41.9 | > 100 | 19.8 | > 74.2 | 35.4 | > 100 | 6.49 | 27.9 | 1.34 | 33.8 | 14.2 | > 100 | 15.5 | 40.3 |
| CCN(CC)CCCC(C)Nc1ccnc(/C=C/c2ccc(Cl)cc2)c1 (stereo not given) | – | 3.41 | – | 8.6 | – | 3.59 | – | 3.59 | – | 3.81 | – | 6.44 | – | 8.39 | – | 4.03 | – | 3.91 | – | 4.98 |
| CC(=O)c1ccc(Oc2c3ccccc3nc3occc23)cc1 | 41.2 | > 100 | 7.02 | > 100 | 4.85 | > 100 | 8.21 | > 100 | 4.68 | > 100 | 7.13 | > 100 | 47.3 | > 100 | 6.35 | 34 | 4.87 | > 100 | 2.19 | 6.58 |
